The record followed here is patent US8802711B2, “TRPV1 antagonists” (AbbVie Inc., priority 2011, dated 2014).

Assay [1] deals with T1, human TRPV1 receptor (hTRPV1) (Homo sapiens (Human), UniProt Q8NER1). The assay is described as follows: Acid activation assay (pH 5.0, FLIPR intracellular Ca2+). To be noted: Table 1, 37.5 μM antagonist, percentage of the maximal pH 5.0-induced response remaining; for remaining activity at 37.5 µM: read-out: hTRPV1 H+ (max % remain). Format: cell-based. A digest of the protocol: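 1321N1 astrocytoma cells stably expressing homomeric hTRPV1, loaded with Calcium-4 dye 90–120 min at 25 °C. Compounds, 12-point half-log range, added 3 min before pH 5.0 DPBS/MES challenge; intracellular Ca2+ read by FLIPR fluorescence.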
T1 sequence (Q8NER1 whole entry): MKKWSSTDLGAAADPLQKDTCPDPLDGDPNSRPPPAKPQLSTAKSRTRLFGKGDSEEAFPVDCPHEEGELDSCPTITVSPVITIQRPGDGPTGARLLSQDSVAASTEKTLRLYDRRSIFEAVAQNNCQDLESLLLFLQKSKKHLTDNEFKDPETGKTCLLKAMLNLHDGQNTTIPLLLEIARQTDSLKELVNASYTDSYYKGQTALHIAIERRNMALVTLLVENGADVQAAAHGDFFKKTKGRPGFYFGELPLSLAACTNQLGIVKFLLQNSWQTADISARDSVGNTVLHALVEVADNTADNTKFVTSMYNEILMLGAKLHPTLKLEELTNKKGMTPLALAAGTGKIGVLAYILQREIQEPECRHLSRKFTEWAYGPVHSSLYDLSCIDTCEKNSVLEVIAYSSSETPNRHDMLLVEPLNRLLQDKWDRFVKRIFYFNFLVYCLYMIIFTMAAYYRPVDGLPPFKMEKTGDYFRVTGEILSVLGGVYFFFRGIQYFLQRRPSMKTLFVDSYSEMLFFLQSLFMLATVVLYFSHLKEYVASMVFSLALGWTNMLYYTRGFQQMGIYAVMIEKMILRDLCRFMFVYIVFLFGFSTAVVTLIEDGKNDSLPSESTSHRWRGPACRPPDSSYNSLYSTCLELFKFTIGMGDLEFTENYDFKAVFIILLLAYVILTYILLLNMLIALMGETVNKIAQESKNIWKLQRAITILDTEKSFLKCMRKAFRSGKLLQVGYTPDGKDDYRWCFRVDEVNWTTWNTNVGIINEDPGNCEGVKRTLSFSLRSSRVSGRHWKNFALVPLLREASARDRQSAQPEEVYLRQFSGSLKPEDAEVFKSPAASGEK

Assay [2] deals with T1, human TRPV1 receptor (hTRPV1). The assay can be described thus: Capsaicin activation assay (FLIPR intracellular Ca2+). To be noted: Table 1; inhibition of capsaicin-induced intracellular Ca2+ increase, HEK293 cells expressing human TRPV1; read-out: hTRPV1 cap IC50. Format: cell-based. The essentials:
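HEK293 cells stably expressing human TRPV1, loaded with Calcium-4 dye 90–120 min at room temperature, preincubated 3 min with compound (12-point one-third-log range) before capsaicin (200 nM as 4× solution). Peak FLIPR fluorescence minus baseline expressed as percent of 50 nM capsaicin control response.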

What is called IC50 is the concentration needed to halve the response being measured. Consider `O=C(Nc1cccc2c1C[C@H](O)C2)N[C@@H]1CC[C@@H](c2cccc(F)c2)C1` [Example 90, 1-[(1R,3R)-3-(3-fluorophenyl)cyclopentyl]-3-[(2R)-2-hydroxy-2,3-dihydro-1H-inden-4-yl]urea], for which the remaining activity at 37.5 µM in assay [1] came to 54%. The half-inhibitory concentration (IC50) in assay [2] was determined as 109 nM.

On to `O=C(Nc1cccc2c1C[C@H](O)C2)N[C@H]1CC[C@@H](c2cccc(F)c2)C1` [Example 91, 1-[(1S,3R)-3-(3-fluorophenyl)cyclopentyl]-3-[(2R)-2-hydroxy-2,3-dihydro-1H-inden-4-yl]urea], for which, in assay [1], the remaining activity at 37.5 µM worked out at 63%. Further, the half-inhibitory concentration (IC50) in assay [2] was found to be 338 nM.

On to `O=C(Nc1cccc2c1C[C@H](O)C2)N[C@@H]1CC[C@@H](c2ccccc2F)C1` [Example 92, 1-[(1R,3R)-3-(2-fluorophenyl)cyclopentyl]-3-[(2R)-2-hydroxy-2,3-dihydro-1H-inden-4-yl]urea], for which the remaining activity at 37.5 µM in assay [1] was determined as 66%. Also, in assay [2], the concentration for half-maximal inhibition (IC50) worked out at 79 nM.

On to `O=C(Nc1cccc2c1C[C@H](O)C2)N[C@H]1CC[C@@H](c2ccccc2F)C1` [Example 93, 1-[(1S,3R)-3-(2-fluorophenyl)cyclopentyl]-3-[(2R)-2-hydroxy-2,3-dihydro-1H-inden-4-yl]urea], for which the remaining activity at 37.5 µM in assay [1] came to 55%. Further, in assay [2], the IC50 is 93 nM.

For `CN1C(=O)CCc2c(NC(=O)N[C@@H]3CC[C@H](c4ccccc4)C3)cccc21` [Example 94, 1-(1-methyl-2-oxo-1,2,3,4-tetrahydroquinolin-5-yl)-3-[(1R,3S)-3-phenylcyclopentyl]urea], in assay [1], the remaining activity at 37.5 µM was found to be 46%. The half-maximal inhibitory concentration (IC50) in assay [2] worked out at 14 nM.

Turning to `CN1C(=O)CCc2c(NC(=O)N[C@H]3CC[C@@H](c4ccccc4)C3)cccc21` [Example 95, 1-(1-methyl-2-oxo-1,2,3,4-tetrahydroquinolin-5-yl)-3-[(1S,3R)-3-phenylcyclopentyl]urea], the remaining activity at 37.5 µM in assay [1] is 34%. In addition, the 50% inhibitory concentration (IC50) in assay [2] was found to be 58 nM.

For `CN1C(=O)CCc2c(NC(=O)N[C@@H]3CC[C@@H](c4cccc(F)c4)C3)cccc21` [Example 97, 1-[(1R,3R)-3-(3-fluorophenyl)cyclopentyl]-3-(1-methyl-2-oxo-1,2,3,4-tetrahydroquinolin-5-yl)urea], the remaining activity at 37.5 µM in assay [1] is 46%. Further, the IC50 in assay [2] is 69 nM.

For the molecule `CN1C(=O)CCc2c(NC(=O)N[C@H]3CC[C@@H](c4cccc(F)c4)C3)cccc21` [Example 98, 1-[(1S,3R)-3-(3-fluorophenyl)cyclopentyl]-3-(1-methyl-2-oxo-1,2,3,4-tetrahydroquinolin-5-yl)urea], in assay [1], the remaining activity at 37.5 µM came out at 32%. Besides, the IC50 in assay [2] turned out to be 54 nM.

Regarding `CN1C(=O)CCc2c(NC(=O)N[C@@H]3CC[C@@H](c4ccccc4F)C3)cccc21` [Example 99, 1-[(1R,3R)-3-(2-fluorophenyl)cyclopentyl]-3-(1-methyl-2-oxo-1,2,3,4-tetrahydroquinolin-5-yl)urea], in assay [1], the remaining activity at 37.5 µM came out at 46%. For the same molecule, the concentration for half-maximal inhibition (IC50) in assay [2] was found to be 16 nM.

Regarding `CN1C(=O)CCc2c(NC(=O)N[C@H]3CC[C@@H](c4ccccc4F)C3)cccc21` [Example 100, 1-[(1S,3R)-3-(2-fluorophenyl)cyclopentyl]-3-(1-methyl-2-oxo-1,2,3,4-tetrahydroquinolin-5-yl)urea], in assay [1], the remaining activity at 37.5 µM was determined as 43%. For the same molecule, in assay [2], the half-maximal inhibitory concentration (IC50) was determined as 25 nM.

In the case of `Cn1ncc2c(NC(=O)N[C@@H]3CC[C@@H](c4cccc(F)c4)C3)cccc21` [Example 101, 1-[(1R,3R)-3-(3-fluorophenyl)cyclopentyl]-3-(1-methyl-420-1-21H-indazol-4-yl)urea], the “hTRPV1 H+ (max % remain)” value in assay [1] came to 4%. Further, in assay [2], the 50% inhibitory concentration (IC50) was determined as 25 nM.

With `Cn1ncc2c(NC(=O)N[C@H]3CC[C@@H](c4cccc(F)c4)C3)cccc21` [Example 102, 1-[(1S,3R)-3-(3-fluorophenyl)cyclopentyl]-3-(1-methyl-1H-indazol-4-yl)urea], the remaining activity at 37.5 µM in assay [1] was determined as 34%. Besides, in assay [2], the IC50 worked out at 218 nM.

Consider `Cn1ncc2c(NC(=O)N[C@@H]3CC[C@@H](c4ccccc4F)C3)cccc21` [Example 103, 1-[(1R,3R)-3-(2-fluorophenyl)cyclopentyl]-3-(1-methyl-1H-indazol-4-yl)urea], for which the remaining activity at 37.5 µM in assay [1] is 19%. In assay [2], the half-maximal inhibitory concentration (IC50) turned out to be 14 nM.

Turning to `Cn1ncc2c(NC(=O)N[C@H]3CC[C@@H](c4ccccc4F)C3)cccc21` [Example 104, 1-[(1S,3R)-3-(2-fluorophenyl)cyclopentyl]-3-(1-methyl-1H-indazol-4-yl)urea], the remaining activity at 37.5 µM in assay [1] was 42%. In addition, in assay [2], the 50% inhibitory concentration (IC50) is 97 nM.

In the case of `CN1C(=O)CCc2ccc(NC(=O)N[C@H]3CC[C@@H](c4ccccc4)C3)cc21` [Example 105, 1-(1-methyl-2-oxo-1,2,3,4-tetrahydroquinolin-7-yl)-3-[(1S,3R)-3-phenylcyclopentyl]urea], the remaining activity at 37.5 µM in assay [1] was 91%. Also, the IC50 in assay [2] came to 956 nM.

As for `CN1C(=O)CCc2ccc(NC(=O)N[C@H]3CC[C@H](c4ccccc4)C3)cc21` [Example 106, 1-(1-methyl-2-oxo-1,2,3,4-tetrahydroquinolin-7-yl)-3-[(1S,3S)-3-phenylcyclopentyl]urea], the remaining activity at 37.5 µM in assay [1] came out at 75%. The concentration for half-maximal inhibition (IC50) in assay [2] is over 37500 nM.

On to `CN1C(=O)CCc2ccc(NC(=O)N[C@@H]3CC[C@@H](c4cccc(F)c4)C3)cc21` [Example 107, 1-[(1R,3R)-3-(3-fluorophenyl)cyclopentyl]-3-(1-methyl-2-oxo-1,2,3,4-tetrahydroquinolin-7-yl)urea], for which, in assay [1], the remaining activity at 37.5 µM came to 77%. In assay [2], the IC50 is over 37500 nM.

Turning to `CN1C(=O)CCc2ccc(NC(=O)N[C@H]3CC[C@@H](c4cccc(F)c4)C3)cc21` [Example 108, 1-[(1S,3R)-3-(3-fluorophenyl)cyclopentyl]-3-(1-methyl-2-oxo-1,2,3,4-tetrahydroquinolin-7-yl)urea], the remaining activity at 37.5 µM in assay [1] was 88%. The concentration for half-maximal inhibition (IC50) in assay [2] was found to be 804 nM.

For the molecule `CN1C(=O)CCc2ccc(NC(=O)N[C@@H]3CC[C@@H](c4ccccc4F)C3)cc21` [Example 109, 1-[(1R,3R)-3-(2-fluorophenyl)cyclopentyl]-3-(1-methyl-2-oxo-1,2,3,4-tetrahydroquinolin-7-yl)urea], the remaining activity at 37.5 µM in assay [1] was determined as 76%. For the same molecule, the IC50 in assay [2] is over 37500 nM.

Take `CN1C(=O)CCc2ccc(NC(=O)N[C@H]3CC[C@@H](c4ccccc4F)C3)cc21` [Example 110, 1-[(1S,3R)-3-(2-fluorophenyl)cyclopentyl]-3-(1-methyl-2-oxo-1,2,3,4-tetrahydroquinolin-7-yl)urea]: in assay [1], the remaining activity at 37.5 µM amounted to 72%. Moreover, in assay [2], the half-maximal inhibitory concentration (IC50) is over 37500 nM.

As to `O=C(Nc1cccc2c1CCC2)N[C@@H]1CC[C@H](c2ccccc2)C1` [Example 111, 1-(2,3-dihydro-1H-inden-4-yl)-3-[(1R,3S)-3-phenylcyclopentyl]urea], the remaining activity at 37.5 µM in assay [1] amounted to 32%. Moreover, in assay [2], the half-inhibitory concentration (IC50) is 362 nM.

In the case of `O=C(Nc1cccc2c1CCC2)N[C@H]1CC[C@H](c2ccccc2)C1` [Example 112, 1-(2,3-dihydro-1H-inden-4-yl)-3-[(1S,3S)-3-phenylcyclopentyl]urea], in assay [1], the remaining activity at 37.5 µM was determined as 35%. In addition, the IC50 in assay [2] came to 1370 nM.

`O=C(Nc1ccc2c(c1)NC(=O)N(CCO)C2)N[C@H]1CC[C@@H](c2ccccc2)C1` [Example 113, 1-[3-(2-hydroxyethyl)-2-oxo-1,2,3,4-tetrahydroquinazolin-7-yl]-3-[(1S,3R)-3-phenylcyclopentyl]urea]: in assay [1], the remaining activity at 37.5 µM was 50%. Further, the IC50 in assay [2] turned out to be 7700 nM.

As to `O=C(Nc1ccc2c(c1)NC(=O)N(CCO)C2)N[C@H]1CC[C@H](c2ccccc2)C1` [Example 114, 1-[3-(2-hydroxyethyl)-2-oxo-1,2,3,4-tetrahydroquinazolin-7-yl]-3-[(1S,3S)-3-phenylcyclopentyl]urea], the remaining activity at 37.5 µM in assay [1] worked out at 62%. Further, in assay [2], the IC50 came out at 830 nM.

Take `O=C(Nc1ccc2c(c1)NC(=O)N(CCO)C2)N[C@@H]1CC[C@@H](c2cccc(F)c2)C1` [Example 115, 1-[(1R,3R)-3-(3-fluorophenyl)cyclopentyl]-3-[3-(2-hydroxyethyl)-2-oxo-1,2,3,4-tetrahydroquinazolin-7-yl]urea]: the remaining activity at 37.5 µM in assay [1] is 47%. Moreover, in assay [2], the concentration for half-maximal inhibition (IC50) was determined as 653 nM.

Take `O=C(Nc1ccc2c(c1)NC(=O)N(CCO)C2)N[C@H]1CC[C@@H](c2cccc(F)c2)C1` [Example 116, 1-[(1S,3R)-3-(3-fluorophenyl)cyclopentyl]-3-[3-(2-hydroxyethyl)-2-oxo-1,2,3,4-tetrahydroquinazolin-7-yl]urea]: in assay [1], the remaining activity at 37.5 µM worked out at 48%. Further, the IC50 in assay [2] amounted to 930 nM.

Take `O=C(Nc1ccc2c(c1)NC(=O)N(CCO)C2)N[C@H]1CC[C@@H](c2ccccc2F)C1` [Example 117, 1-[(1S,3R)-3-(2-fluorophenyl)cyclopentyl]-3-[3-(2-hydroxyethyl)-2-oxo-1,2,3,4-tetrahydroquinazolin-7-yl]urea]: the remaining activity at 37.5 µM in assay [1] came to 47%. Besides, the half-maximal inhibitory concentration (IC50) in assay [2] amounted to 804 nM.

Take `Cn1c(=O)ccc2c(NC(=O)N[C@H]3CC[C@H](c4ccccc4)C3)cccc21` [Example 118, 1-(1-methyl-2-oxo-1,2-dihydroquinolin-5-yl)-3-[(1S,3S)-3-phenylcyclopentyl]urea]: the remaining activity at 37.5 µM in assay [1] is 50%. For the same molecule, the IC50 in assay [2] is over 37500 nM.

As for `O=C(Nc1cccc2c1CCC2)N[C@H]1CC[C@@H](c2ccccc2)C1` [Example 124, 1-(2,3-dihydro-1H-inden-4-yl)-3-[(1S,3R)-3-phenylcyclopentyl]urea], in assay [1], the remaining activity at 37.5 µM is 50%. Besides, the IC50 in assay [2] worked out at 6480 nM.
